Reference: ChEMBL document CHEMBL1133347, “Synthesis of NF-kappaB activation inhibitors derived from epoxyquinomicin C” (Bioorg Med Chem Lett, 2000)

Assays:
Jurkat [1] = test: Compound was assessed for NF-kB activity using human T cell leukemia Jurkat cells; more toxic; type: functional, cell-based
Mus musculus = species on record: Mus musculus; test: Compound was tested for antiarthritic effects on type-II collagen induced arthritis in DBA1/J mice; inhibited; type: functional, organism-based
Jurkat [2] = test: Compound was assessed for NF-kB activity using human T cell leukemia Jurkat cells; Less toxic; type: functional, cell-based

Row | SMILES | Activity (Jurkat [1]) | Activity (Mus musculus) | Activity (Jurkat [2])
1 | O=C(NC1=CC(O)C2OC2C1=O)c1ccccc1O (stereo not drawn) | Toxic | – | –
2 | O=C(NC1=CC(=O)[C@H]2O[C@H]2[C@H]1O)c1ccccc1O | – | Inhibited | Toxic
